# Results published in article PMC2765529 (Journal of medicinal chemistry, 2009).
# Counter-ions that a name gives are not always drawn.
# How the values were obtained:
# human VAChT = target: T1, human VAChT (Homo sapiens, UniProt Q16572); assay: VAChT binding, competition against [^3H]vesamicol; conditions: for Ki: VAChT (Ki [nM]), [^3H]vesamicol competition, mean ± SEM
# T1 sequence (Q16572 1-532): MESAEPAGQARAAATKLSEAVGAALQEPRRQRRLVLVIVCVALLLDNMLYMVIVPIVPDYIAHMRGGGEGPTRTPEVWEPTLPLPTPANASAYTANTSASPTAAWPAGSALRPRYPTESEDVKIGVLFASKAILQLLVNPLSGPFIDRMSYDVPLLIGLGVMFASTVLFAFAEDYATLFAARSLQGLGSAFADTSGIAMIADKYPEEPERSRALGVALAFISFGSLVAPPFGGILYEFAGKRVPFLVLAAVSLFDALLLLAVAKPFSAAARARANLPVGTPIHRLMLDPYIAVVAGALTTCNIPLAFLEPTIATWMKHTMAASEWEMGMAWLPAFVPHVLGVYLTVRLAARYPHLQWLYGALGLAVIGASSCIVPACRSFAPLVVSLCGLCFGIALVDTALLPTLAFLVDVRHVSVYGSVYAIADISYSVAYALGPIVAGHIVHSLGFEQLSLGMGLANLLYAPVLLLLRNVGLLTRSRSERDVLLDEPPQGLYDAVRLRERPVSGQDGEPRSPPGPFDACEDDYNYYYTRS
# [1] = Tissue biodistribution and regional brain uptake in rats; assay type: in vivo, male Sprague-Dawley rats; conditions: for Blood uptake: i.v., mean ± SD, n=4 rats
structure (smiles),measurement,setting,value
"O=C(c1ccc(F)cc1)C1CCN([C@@H]2Cc3ccccc3C[C@H]2O)CC1 (relative stereo) [(±)9e, (±)-trans-2-Hydroxy-3-(4-(4-fluorobenzoyl)piperidino)tetralin]",IC50,human VAChT,2.7 ± 0.4 nM
same,Ki,human VAChT,2.7 ± 0.4 nM
"O=C(c1ccc(Br)cc1)C1CCN([C@@H]2Cc3ccccc3C[C@H]2O)CC1 (racemic) [Compound 9b, (±)-trans-2-Hydroxy-3-(4-(4-bromobenzoyl)piperidino)tetralin hydrochloride]",IC50,human VAChT,0.25 ± 0.02 nM
"O=C(c1ccc(F)cc1)C1CCN([C@@H]2Cc3ccccc3C[C@H]2O)CC1 (single isomer, unassigned) [(+)-9e]",Ki,human VAChT,108 ± 15 nM
"O=C(c1ccc([18F])cc1)C1CCN([C@@H]2Cc3ccccc3C[C@H]2O)CC1 (racemic) [(±)-[^18F]9e, (±)-trans-2-Hydroxy-3-(4-(4-[^18F]fluorobenzoyl)piperidino)tetralin]",Bone uptake,[1]; 5 min p.i.,0.307 ± 0.011 %ID/g
same,Brain uptake,[1]; 5 min p.i.,0.606 ± 0.100 %ID/g
same,Fat uptake,[1]; 5 min p.i.,0.088 ± 0.026 %ID/g
same,Heart uptake,[1]; 5 min p.i.,0.328 ± 0.014 %ID/g
same,Liver uptake,[1]; 5 min p.i.,1.939 ± 0.382 %ID/g
same,Muscle uptake,[1]; 5 min p.i.,0.079 ± 0.015 %ID/g
same,Blood uptake,[1]; 5 min p.i.,0.122 ± 0.023 %ID/g
same,Bone uptake,"[1]; 5 min p.i., listed as racemic [^18F]9e",0.31 %ID/g
same,Bone uptake,[1]; 30 min p.i.,0.445 ± 0.032 %ID/g
same,Brain uptake,[1]; 30 min p.i.,0.153 ± 0.044 %ID/g
same,Fat uptake,[1]; 30 min p.i.,0.177 ± 0.039 %ID/g
same,Heart uptake,[1]; 30 min p.i.,0.141 ± 0.005 %ID/g
same,Liver uptake,[1]; 30 min p.i.,1.504 ± 0.271 %ID/g
same,Lung uptake,[1]; 30 min p.i.,0.553 ± 0.056 %ID/g
same,Muscle uptake,[1]; 30 min p.i.,0.071 ± 0.006 %ID/g
same,Blood uptake,[1]; 30 min p.i.,0.071 ± 0.009 %ID/g
same,Bone uptake,[1]; 1 h p.i.,0.623 ± 0.080 %ID/g
same,Brain uptake,[1]; 1 h p.i.,0.095 ± 0.012 %ID/g
same,Fat uptake,[1]; 1 h p.i.,0.196 ± 0.035 %ID/g
same,Heart uptake,[1]; 1 h p.i.,0.094 ± 0.008 %ID/g
same,Lung uptake,[1]; 1 h p.i.,0.346 ± 0.045 %ID/g
same,Muscle uptake,[1]; 1 h p.i.,0.076 ± 0.012 %ID/g
same,Blood uptake,[1]; 1 h p.i.,0.043 ± 0.003 %ID/g
same,Bone uptake,[1]; 2 h p.i.,0.739 ± 0.044 %ID/g
same,Brain uptake,[1]; 2 h p.i.,0.059 ± 0.008 %ID/g
same,Fat uptake,[1]; 2 h p.i.,0.173 ± 0.042 %ID/g
same,Heart uptake,[1]; 2 h p.i.,0.056 ± 0.007 %ID/g
same,Kidney uptake,[1]; 2 h p.i.,0.853 ± 0.171 %ID/g
same,Liver uptake,[1]; 2 h p.i.,1.188 ± 0.158 %ID/g
same,Lung uptake,[1]; 2 h p.i.,0.223 ± 0.014 %ID/g
same,Muscle uptake,[1]; 2 h p.i.,0.047 ± 0.006 %ID/g
same,Blood uptake,[1]; 2 h p.i.,0.027 ± 0.004 %ID/g
"O=C(c1ccccc1)C1CCN([C@@H]2Cc3ccccc3C[C@H]2O)CC1 (racemic) [Compound 9a, (±)-trans-2-Hydroxy-3-(4-benzoylpiperidino)tetralin hydrochloride]",IC50,human VAChT,4.3 ± 1 nM
